Test results from ChEMBL document CHEMBL4325829, “Design and Synthesis of Tubulin and Histone Deacetylase Inhibitor Based on iso-Combretastatin A-4” (J Med Chem, 2018).
Activity calls are given as the source filed them. The rule behind the calls is not given here.

Columns and labels:
Ovis aries = species: Ovis aries; assay: Inhibition of sheep brain tubulin polymerization assessed as reduction in rate of microtubule assembly at 200 uM by DAPI-fluorescence based assay
HCT-116 = assay: Antiproliferative activity against human HCT116 cells after 72 hrs by MTS assay; type: functional
[1] = Inhibition of sheep brain tubulin polymerization assessed as reduction in rate of microtubule assembly by DAPI-fluorescence based assay; set-up: species or system Ovis aries
HT-29 [2] = assay: Antiproliferative activity against human HT-29 cells after 72 hrs by MTS assay; type: functional
HT-29 [3] = assay: Antiproliferative activity against human HT-29 cells in presence of isoCA-4 after 72 hrs by MTS assay relative to control; type: functional, cell-based; settings: HT-29, 72 h
K-562R = assay: Antiproliferative activity against human K562R cells after 72 hrs by MTS assay; type: functional
BXPC-3 = assay: Antiproliferative activity against human BxPC3 cells after 72 hrs by MTS assay; type: functional
A549 = assay: Antiproliferative activity against human A549 cells after 72 hrs by MTS assay; type: functional
HT-29 [4] = assay: Antiproliferative activity against human HT-29 cells assessed as cell viability after 72 hrs by MTS assay relative to control; type: functional
K562 = assay: Antiproliferative activity against human K562 cells after 72 hrs by MTS assay; type: functional
MCF7 = assay: Antiproliferative activity against human MCF7 cells after 72 hrs by MTS assay; type: functional
MIA PaCa-2 = assay: Antiproliferative activity against human MIAPaCa2 cells after 72 hrs by MTS assay; type: functional
PC-3 = assay: Antiproliferative activity against human PC3 cells after 72 hrs by MTS assay; type: functional
U-87 MG = assay: Antiproliferative activity against human U87 cells after 72 hrs by MTS assay; type: functional, U-87MG ATCC

Row | inhibition (Ovis aries) | GI50 (HCT-116; Homo sapiens, HCT-116, 72 h) [µM] | IC50 [1] [µM] | SMILES | other results
1 | inactive | 1 |  | C=C(c1ccc(OC)c(C#CCCC(=O)OCC)c1)c1cc(OC)c(OC)c(OC)c1 | 
2 | inactive | 1 |  | C=C(c1ccc(OC)c(OCCCC(=O)OCC)c1)c1cc(OC)c(OC)c(OC)c1 | 
3 |  | 0.15 | 5 | C=C(c1ccc(OC)c(OCC(=O)OCC)c1)c1cc(OC)c(OC)c(OC)c1 | 
4 |  | 0.393 | 22 | C=C(c1cc(OC)c(OC)c(OC)c1)c1ccc2c(ccn2CCC(=O)NO)c1 | 
5 |  |  |  | CC(/C=C/C(=O)NO)=C\[C@@H](C)C(=O)c1ccc(N(C)C)cc1 [TRICHOSTATIN] | GI50 (HT-29 [2]): 0.0341 µM; IC50 (HT-29 [3]): 0.0038 µM; GI50 (K-562R): 0.088 µM; GI50 (BXPC-3): 0.1 µM; GI50 (A549): 0.08 µM; Activity (HT-29 [4]): <20%; GI50 (K562): 0.262 µM; GI50 (MCF7): 0.045 µM; GI50 (MIA PaCa-2): 0.2 µM; GI50 (PC-3): 0.387 µM; GI50 (U-87 MG): 1.04 µM; GI50 (HCT-116): 0.035 µM
6 |  | 0.372 | 18 | C=C(c1ccc(OC)c(C#CCCCC(=O)NO)c1)c1cc(OC)c(OC)c(OC)c1 | 
7 |  | 0.085 | 4 | C=C(c1ccc(OC)c(/C=C/C(=O)OC)c1)c1cc(OC)c(OC)c(OC)c1 | 
8 |  | 0.0372 | 7.5 | C=C(c1cc(OC)c(OC)c(OC)c1)c1ccc(OC)c(/C=C/C(=O)NO)n1 | 
9 | inactive | 3 |  | C=C(c1ccc(OC)c(OCCCCCCC(=O)OCC)c1)c1cc(OC)c(OC)c(OC)c1 | 
10 | inactive | 0.34 |  | C=C(c1cc(OC)c(OC)c(OC)c1)c1ccc(OC)c(C(=O)Nc2ccccc2N)c1 | 
11 |  | 0.008 | 1.7 | C=C(c1ccc(OC)c(C#CCCC(=O)NO)c1)c1cc(OC)c(OC)c(OC)c1 | 
